Test [1] relates to Mus musculus. Kind of test: Compound was administered subcutaneously and was evaluated for opioid agonist activity by antinociceptive hotplate (HP) assay in mice; I denotes Inactive at 30 mg/kg. It is filed as functional, organism-based. Further details: dose 30 mg/kg.
The test system of test [2] is Mus musculus. The test can be described thus: Compound was administered subcutaneously and was evaluated for opioid agonist activity by antinociceptive tail-flick (TF) assay in mice; I denotes Inactive at 30 mg/kg. It counts as functional, organism-based. Further details: dose 30 mg/kg.
The test system of test [3] is Mus musculus. Kind of test: Compound was administered subcutaneously and was evaluated for opioid antagonist activity (versus morphine) by tail-flick (TF) antagonism test; I denotes Inactive at 30 mg/kg. It counts as functional, organism-based. Further details: dose 30 mg/kg.
The test system of test [4] is Mus musculus. The test can be described thus: Compound was administered subcutaneously and was evaluated for opioid agonist activity by antinociceptive p-phenylquinone-writhing (PPQ) assay in mice; I denotes Inactive at 30 mg/kg. It is filed as functional, organism-based. Also on record: dose 30 mg/kg. In general terms: Writhing tests count abdominal constrictions after an irritant is injected.

The test system of test [5] is Mus musculus. The test can be described thus: Compound was administered subcutaneously and was evaluated for opioid agonist activity by antinociceptive tail-flick (TF) assay in mice. It is filed as functional.
The test system of test [6] is Mus musculus. Kind of test: Compound was administered subcutaneously and was evaluated for opioid agonist activity by antinociceptive hotplate (HP) assay in mice. It counts as functional.
Test [7] relates to Mus musculus. The test can be described thus: Compound was administered subcutaneously and was evaluated for opioid agonist activity by antinociceptive p-phenylquinone-writhing (PPQ) assay in mice. It is filed as functional.
The test system of test [8] is Mus musculus. The test can be described thus: Compound was administered subcutaneously and was evaluated for opioid antagonist activity (versus morphine) by tail-flick (TF) antagonism test. It counts as functional.
Test [9] has as its system Mus musculus. The test can be described thus: Compound was administered subcutaneously and was evaluated for opioid agonist activity by antinociceptive hotplate (HP) assay in mice. It is filed as functional. The note with it: sc.
In test [10] the test system is Mus musculus. The test can be described thus: Compound was administered subcutaneously and was evaluated for opioid antagonist activity (versus morphine) by tail-flick (TF) antagonism test. It counts as functional.
For test [11], the system named is Mus musculus. Kind of test: Compound was administered subcutaneously and was evaluated for opioid agonist activity by antinociceptive tail-flick (TF) assay in mice. As to conditions: sc. It is filed as functional.
Test [12] has as its system Mus musculus. The test can be described thus: Compound was administered subcutaneously and was evaluated for opioid agonist activity by antinociceptive p-phenylquinone-writhing (PPQ) assay in mice,. It counts as functional. As to conditions: sc.
The subject of test [13] is Mus musculus. Kind of test: Compound was administered subcutaneously and was evaluated for opioid agonist activity by antinociceptive hotplate (HP) assay in mice,. It counts as functional. The note with it: sc.
Setting [14] is: Mus musculus, sc, read-out: ED50.

Each structure is given as a SMILES string. The source made the active and inactive calls. The calls are words filed in the database; no cut-off is given here.

In general, ED50 refers to the dose at which the effect has come halfway, by size or by number of responders. On to `COc1cccc([C@@]23CCC[C@H]([C@H]2C)N(C)CC3)c1`, for which the ED50 result in test [1], in [2], in [3] and in test [4] was “inactive” each time.
`Br.CN1CC[C@]2(c3cccc(O)c3)CCC[C@@H]1C2` (stereo in doubt; (+)): the results for the ED50 in test [5], in test [6] and in test [7] (setting [14]) were 1.1 mg/kg, 0.4 mg/kg and 0.5 mg/kg, respectively.
With `CN1CC[C@]2(c3cccc(O)c3)CCC[C@@H]1C2` (stereo in doubt; (+)), the AD50 result in [3] is “inactive”.
For `Br.CN1CC[C@]2(c3cccc(O)c3)CCC[C@@H]1C2` (stereo in doubt; (-)), the ED50 in [5] was determined as 5.4 mg/kg; in test [6], 1.7 mg/kg; in test [7], 0.9 mg/kg.
In the case of `CN1CC[C@]2(c3cccc(O)c3)CCC[C@@H]1C2` (stereo in doubt; (-)), in test [3], the AD50 entry is “inactive”.
`C[C@@H]1[C@H]2CCC[C@@]1(c1cccc(O)c1)CCN2C.Cl` (stereo in doubt; form 1) displayed an AD50 in test [8] of 4.5 mg/kg.
As to `C[C@@H]1[C@H]2CCC[C@@]1(c1cccc(O)c1)CCN2C` (stereo in doubt; form 1), the ED50 entry in test [1], in [2] and in test [4] was “inactive” in each case.
On to `C[C@@H]1[C@H]2CCC[C@@]1(c1cccc(O)c1)CCN2C.Cl` (stereo in doubt; form 2), for which the ED50 turned out to be 10 mg/kg in [6] (setting [14]) and 1.9 mg/kg in [7] (setting [14]).
For `C[C@@H]1[C@H]2CCC[C@@]1(c1cccc(O)c1)CCN2C` (stereo in doubt; form 2), the ED50 entry in test [2] is “inactive”. In addition, the AD50 entry in test [3] is “inactive”.
For the compound `C[C@@H]1[C@H]2CCC[C@@]1(c1cccc(O)c1)CCN2C.Cl` (stereo in doubt; form 3), the ED50 in test [9] amounted to 9.3 mg/kg. The compound also came in with an AD50 in test [10] of 5 mg/kg.
With `C[C@@H]1[C@H]2CCC[C@@]1(c1cccc(O)c1)CCN2C` (stereo in doubt; form 3), the ED50 result in test [2] and in test [4] was “inactive” throughout.
On to `COc1ccc2c3c1O[C@H]1[C@@H](O)C=C[C@H]4[C@@H](C2)N(C)CC[C@@]341` [CODEINE], for which the ED50 came to 14.5 mg/kg in test [11], 1.4 mg/kg in [12] and 6.8 mg/kg in test [13]. Moreover, the AD50 result in test [3] is “inactive”.
`CN1CC[C@]23c4c5ccc(O)c4O[C@H]2[C@@H](O)C=C[C@H]3[C@H]1C5` [MORPHINE]: it took a dose of 0.2 mg/kg to reach the 50% effect level in [12] (ED50). The AD50 entry in test [3] is “inactive”.
For the compound `C=CCN1CC[C@]23c4c5ccc(O)c4O[C@H]2[C@@H](O)C=C[C@H]3[C@H]1C5` [NALORPHINE], in test [2], the ED50 result is “inactive”. Moreover, the ED50 in test [7] (setting [14]) is 0.6 mg/kg. In test [10], this compound registered an AD50 of 2.6 mg/kg.

(Values after ChEMBL document CHEMBL1122639, “Racemic and optically active 2,9-dimethyl-5-(m-hydroxyphenyl)morphans and pharmacological comparison with the 9-demethyl homologues” (1984).)
